Measured values from patent US10987359B2, “Oxadiazepinone derivatives and methods of treating hepatitis B infections” (priority 2016, dated 2021).

test system: HBV; test: HBV replication inhibition assay (BDNA assay) in HepG2.2.15 cells; assay type: cell-based; details: HBV replication assay (BDNA assay), HepG2.2.15 cells; read-out: DNA EC50
Method in brief: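 HepG2.2.15 cells with stably integrated HBV were treated with serially diluted compounds at 0.5% DMSO for 6 days, with medium and compound refreshed at day 3. Encapsidated HBV DNA from DNase-treated supernatant was quantified by branched DNA assay. EC50 came from % inhibition versus DMSO, fitted non-linearly.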

| SMILES | EC50 [nM] |
| --- | --- |
| C[C@@H]1Cc2nn3c(c2CN1C(=O)Nc1ccc(F)c(C#N)c1)C(=O)N(C)OC(C(=O)N(C)CC(F)F)C3 (stereo in doubt) [Compound 155_D2, (4R*,9R)—N10-(3-cyano-4-fluorophenyl)-N4-(2,2-difluoroethyl)-N4,2,9-trimethyl-1-oxo-1,4,5,8,9,11-hexahydropyrido[4′,3′:3,4]pyrazolo[5,1-d][1,2,5]oxadiazepine-4,10(2H)-dicarboxamide] | 1 to 100 |
| CNC(=O)C1Cn2nc3c(c2C(=O)N(C)O1)CN(C(=O)Nc1ccc(F)c(C#N)c1)[C@H](C)C3 (stereo in doubt) [Compound 112_D1, (4S*,9R)—N10-(3-cyano-4-fluorophenyl)-N4,2,9-trimethyl-1-oxo-1,4,5,8,9,11-hexahydropyrido[4′,3′:3,4]pyrazolo[5,1-d][1,2,5]oxadiazepine-4,10(2H)-dicarboxamide] | > 1000 |
| C[C@@H]1Cc2nn3c(c2CN1C(=O)Nc1ccc(F)c(C#N)c1)C(=O)N(C)OC(COCC(F)F)C3 (stereo in doubt) [Compound 124_D2, (4R*,9R)—N-(3-cyano-4-fluorophenyl)-4-((2,2-difluoroethoxy)methyl)-2,9-dimethyl-1-oxo-1,4,5,8,9,11-hexahydropyrido[4′,3′:3,4]pyrazolo[5,1-d][1,2,5]oxadiazepine-10(2H)-carboxamide] | 1 to 100 |
| C[C@@H]1Cc2nn3c(c2CN1C(=O)Nc1ccc(F)c(Cl)c1F)C(=O)N(C)OC(CO)C3 (stereo in doubt) [Compound 091_E2, (4R*,9R)—N-(3-chloro-2,4-difluorophenyl)-4-(hydroxymethyl)-2,9-dimethyl-1-oxo-1,4,5,8,9,11-hexahydropyrido[4′,3′:3,4]pyrazolo[5,1-d][1,2,5]oxadiazepine-10(2H)-carboxamide] | 1 to 100 |

same assay, conditions: Hepatitis B virus, HepG2.2.15, HBV replication assay (BDNA assay), HepG2.2.15 cells; read-out: DNA EC50

| SMILES | EC50 [nM] |
| --- | --- |
| CN1O[C@H](C[S@+](C)[O-])Cn2nc3c(c2C1=O)CN(C(=O)Nc1ccc(F)c(Cl)c1)CC3 (stereo in doubt) [Compound 049_E1, (S*)—N-(3-chloro-4-fluorophenyl)-2-methyl-4-(((S*)-methylsulfinyl)methyl)-1-oxo-1,4,5,8,9,11-hexahydropyrido[4′,3′:3,4]pyrazolo[5,1-d][1,2,5]oxadiazepine-10(2H)-carboxamide] | 100 to 500 |
| C[C@@H]1Cc2nn3c(c2CN1C(=O)Nc1ccc(F)c(Cl)c1F)C(=O)N(C)OC(CO)C3 (stereo in doubt) [Compound 091_E1, (4S*,9R)—N-(3-chloro-2,4-difluorophenyl)-4-(hydroxymethyl)-2,9-dimethyl-1-oxo-1,4,5,8,9,11-hexahydropyrido[4′,3′:3,4]pyrazolo[5,1-d][1,2,5]oxadiazepine-10(2H)-carboxamide] | 1 to 100 |
| C[C@@H]1Cc2nn3c(c2CN1C(=O)Nc1ccc(F)c(C#N)c1)C(=O)N(C)N=C(CO)C3 [Compound 233, (R)-N-(3-cyano-4-fluorophenyl)-4-(hydroxymethyl)-2,9-dimethyl-1-oxo-1,2,5,8,9,11-hexahydro-10H-pyrido[4′,3′:3,4]pyrazolo[5,1-d][1,2,5]triazepine-10-carboxamide] | 1 to 100 |
| CC1Cn2nc3c(c2C(=O)N(C)O1)CN(C(=O)Nc1cccc(Cl)c1)CC3 (stereo not drawn) [Compound 063, N-(3-chlorophenyl)-2,4-dimethyl-1-oxo-1,4,5,8,9,11-hexahydropyrido[4′,3′:3,4]pyrazole [5,1-d][1,2,5]oxadiazepine-10(2H)-carboxamide] | 1 to 100 |
| CNC(=O)C1Cn2nc3c(c2C(=O)N(C)O1)CN(C(=O)Nc1ccc(F)c(C#N)c1)CC3 (stereo not drawn) [Compound 120, N10-(3-cyano-4-fluorophenyl)-N4,2-dimethyl-1-oxo-1,4,5,8,9,11-hexahydropyrido[4′,3′:3,4]pyrazolo[5,1-d][1,2,5]oxadiazepine-4,10(2H)-dicarboxamide] | 100 to 500 |
| C[C@@H]1Cc2nn3c(c2CN1C(=O)Nc1cc(C(F)(F)F)ccc1F)C(=O)N(C)O[C@H](CO)C3 (relative stereo) [Compound 157_D1, (4S*,9R)—N-[2-fluoro-5-(trifluoromethyl)phenyl]-4-(hydroxymethyl)-2,9-dimethyl-1-oxo-5,8,9,11-tetrahydro-4H-pyrido[2,3]pyrazolo[2,4-d][1,2,5]oxadiazepine-10-carboxamide] | 1 to 100 |
| C[C@@H]1Cc2nn3c(c2CN1C(=O)Nc1ccc(F)c(C(F)(F)F)c1)C(=O)N(C)OCC3 [Compound 076, (R)—N-(4-fluoro-3-(trifluoromethyl)phenyl)-2,9-dimethyl-1-oxo-1,4,5,8,9,11-hexahydropyrido[4′,3′:3,4]pyrazolo[5,1-d][1,2,5]oxadiazepine-10(2H)-carboxamide] | 1 to 100 |
| CN1OC(CF)Cn2nc3c(c2C1=O)CN(C(=O)Nc1ccc(F)c(C(F)(F)F)c1)CC3 (single isomer, unassigned) [Compound 039_E1, (S*)—N-(4-fluoro-3-(trifluoromethyl)phenyl)-4-(fluoromethyl)-2-methyl-1-oxo-1,4,5,8,9,11-hexahydropyrido[4′,3′:3,4]pyrazolo[5,1-d][1,2,5]oxadiazepine-10(2H)-carboxamide] | 1 to 100 |
| C[C@@H]1Cc2nn3c(c2CN1C(=O)Nc1ccc(F)c(C(F)(F)F)c1)C(=O)N(C)OC(CNCC(F)F)C3 (single isomer, unassigned) [Compound 182_D1, (4S*,9R)-4-(((2,2-difluoroethyl)amino)methyl)-N-(4-fluoro-3-(trifluoromethyl)phenyl)-2,9-dimethyl-1-oxo-1,4,5,8,9,11-hexahydropyrido[4′,3′:3,4]pyrazolo[5,1-d][1,2,5]oxadiazepine-10(2H)-carboxamide] | 1 to 100 |
| CN1OC(CO)Cn2nc3c(c2C1=O)CN(C(=O)Nc1cccc(Cl)c1)CC3 (stereo not drawn) [Compound 030, N-(3-chlorophenyl)-4-(hydroxymethyl)-2-methyl-1-oxo-1,4,5,8,9,11-hexahydropyrido[4′,3′:3,4]pyrazolo[5,1-d][1,2,5]oxadiazepine-10(2H)-carboxamide] | 1 to 100 |
| Cc1ccc(NC(=O)N2CCc3nn4c(c3C2)C(=O)N(C)OC(CO)C4)cc1Cl (stereo not drawn) [Compound 026, N-(3-chloro-4-methylphenyl)-4-(hydroxymethyl)-2-methyl-1-oxo-1,4,5,8,9,11-hexahydropyrido[4′,3′:3,4]pyrazolo[5,1-d][1,2,5]oxadiazepine-10(2H)-carboxamide] | 1 to 100 |
| C=CCN1CCn2nc3c(c2C(=O)N1C)CN(C(=O)Nc1ccc(F)c(C#N)c1)[C@H](C)C3 [Compound 218, (R)-3-allyl-N-(3-cyano-4-fluorophenyl)-2,9-dimethyl-1-oxo-1,2,3,4,5,8,9,11-octahydro-10H-pyrido[4′,3′:3,4]pyrazolo[5,1-d][1,2,5]triazepine-10-carboxamide] | 1 to 100 |
| CN1OC(CO)Cn2nc3c(c2C1=O)CN(C(=O)Nc1cccc(S(F)(F)(F)(F)F)c1)CC3 (stereo not drawn) [Compound 029, 4-(hydroxymethyl)-2-methyl-1-oxo-N-(3-(pentafluoro-16-sulfanyl)phenyl)-1,4,5,8,9,11-hexahydropyrido[4′,3′:3,4]pyrazolo[5,1-d][1,2,5]oxadiazepine-10(2H)-carboxamide] | 1 to 100 |
| Cc1cc(NC(=O)N2Cc3c(nn4c3C(=O)N(C)OCC4)C[C@H]2C)ccc1F [Compound 080, (R)—N-(4-fluoro-3-methylphenyl)-2,9-dimethyl-1-oxo-1,4,5,8,9,11-hexahydropyrido[4′,3′:3,4]pyrazolo[5,1-d][1,2,5]oxadiazepine-10(2H)-carboxamide] | 1 to 100 |
